In US5405859A (priority 1993, dated 1995):
Values after ≈ are worked out from the molar mass of the structure shown. Where two headings read alike, the source gives them in different places.

Key:
MCF-7 cells = test: Cancer cell screen (NCI protocol), MCF-7; conditions: Homo sapiens, MCF7, read-out: LOGIC50(W)
UO-31 cells = test: Cancer cell screen (NCI protocol), UO-31; conditions: Homo sapiens, UO-31, read-out: LOGIC50(W)
A2780 cells = test: Cancer cell screen (NCI protocol), A2780; conditions: Homo sapiens, A2780, read-out: LOGIC50(W)
SNB-75 cells = test: Cancer cell screen (NCI protocol), SNB-75; conditions: Homo sapiens, SNB-75, read-out: LOGIC50(W)
SK-MES1 cells = test: Cancer cell screen (NCI protocol), SK-MES1; conditions: Homo sapiens, SK-MES-1, read-out: LOGIC50(W)
OVCAR-4 cells = test: Cancer cell screen (NCI protocol), OVCAR-4; conditions: Homo sapiens, OVCAR-4, read-out: LOGIC50(W)
[1] = test system: standard group of cancer cells; test: Screen against standard group of cancer cells, whole panel; conditions: for .DELTA / .RANGE: log IC50, cell panel; for IC50: read-out: .AV.LOG IC50; for relative activity: review of Tables IV-VI
HT29 cells = test: Cancer cell screen (NCI protocol), HT29; conditions: Homo sapiens, HT-29, read-out: LOGIC50(W)
TE-671 cells = test: Cancer cell screen (NCI protocol), TE-671; conditions: Homo sapiens, TE-671, read-out: LOGIC50(W)
MOLT-4 cells = test: Cancer cell screen (NCI protocol), MOLT-4; conditions: Homo sapiens, MOLT-4, read-out: LOGIC50(W)
U-251 cells = test: Cancer cell screen (NCI protocol), U-251; conditions: Homo sapiens, U-251, read-out: LOGIC50(W)
OVCAR-8 cells = test: Cancer cell screen (NCI protocol), OVCAR-8; conditions: Homo sapiens, OVCAR-8, read-out: LOGIC50(W)
SNB-19 cells = test: Cancer cell screen (NCI protocol), SNB-19; conditions: Homo sapiens, SNB-19, read-out: LOGIC50(W)
A498 cells = test: Cancer cell screen (NCI protocol), A498; conditions: Homo sapiens, A498, read-out: LOGIC50(W)
SK-MEL5 cells = test: Cancer cell screen (NCI protocol), SK-MEL5; conditions: Homo sapiens, SK-MEL-5, read-out: LOGIC50(W)
SN-12KI cells = test: Cancer cell screen (NCI protocol), SN-12KI; conditions: read-out: LOGIC50(W)
LOVO cells = test: Cancer cell screen (NCI protocol), LOVO; conditions: Homo sapiens, read-out: LOGIC50(W)
SW620 cells = test: Cancer cell screen (NCI protocol), SW620; conditions: Homo sapiens, SW-620, read-out: LOGIC50(W)
H460 cells = test: Cancer cell screen (NCI protocol), H460; conditions: Homo sapiens, NCI-H460, read-out: LOGIC50(W)
P388/AD cells = test: Cancer cell screen (NCI protocol), P388/AD; conditions: Mus musculus, P388, read-out: LOGIC50(W)
MCF-7/A cells = test: Cancer cell screen (NCI protocol), MCF-7/A; conditions: MCF7a, read-out: LOGIC50(W)
OVCAR-5 cells = test: Cancer cell screen (NCI protocol), OVCAR-5; conditions: Homo sapiens, OVCAR-5, read-out: LOGIC50(W)
HL-60 cells = test: Cancer cell screen (NCI protocol), HL-60; conditions: Homo sapiens, HL-60, read-out: LOGIC50(W)
[2] = Initial screening, relative activities of the patellazoles
A704 cells = test: Cancer cell screen (NCI protocol), A704; conditions: Homo sapiens, A704, read-out: LOGIC50(W)
H322 cells = test: Cancer cell screen (NCI protocol), H322; conditions: NCI-H322, read-out: LOGIC50(W)
H520 cells = test: Cancer cell screen (NCI protocol), H520; conditions: Homo sapiens, NCI-H520, read-out: LOGIC50(W)
EKV-X cells = test: Cancer cell screen (NCI protocol), EKV-X; conditions: Homo sapiens, EKVX, read-out: LOGIC50(W)
P388 cells = test: Cancer cell screen (NCI protocol), P388; conditions: Mus musculus, P388, read-out: LOGIC50(W)
HSV-2 = test: Antiviral testing, HSV-2; assay type: cell-based, herpes virus HSV-2; conditions: for HSV-2 (antiviral concentration): Vero host cells, kind of endpoint not given; for activity against herpes virus HSV-2: at concentrations not toxic for host cells (Vero)
Excerpt: (§1) Substantially pure compounds of Patellazole B and C were screened for activity. These extracts from a marine tunicate (L. patella) were submitted for antiviral testing.

VERO = test: Cytotoxicity in Vero host cells; assay type: cell-based; conditions: for Cytotoxicity Vero: Vero cells, kind of endpoint not given; for toxicity for the host cells: Vero, at concentrations active against HSV-1 and HSV-2
Excerpt: as §1

SNB-44 cells = test: Cancer cell screen (NCI protocol), SNB-44; conditions: SNB44, read-out: LOGIC50(W)
A549 cells = test: Cancer cell screen (NCI protocol), A549; conditions: Homo sapiens, A549, read-out: LOGIC50(W)
HSV-1 = test: Antiviral testing, HSV-1; assay type: cell-based, herpes virus HSV-1; conditions: for HSV-L (antiviral concentration): Vero host cells, kind of endpoint not given; for activity against herpes virus HSV-1: at concentrations not toxic for host cells (Vero)
Excerpt: as §1

LOX cells = test: Cancer cell screen (NCI protocol), LOX; conditions: read-out: LOGIC50(W)
A322 cells = test: Cancer cell screen (NCI protocol), A322; conditions: read-out: LOGIC50(W)
[3] = Patellazole B versus Patellazole C

| SMILES | IC50 (A2780 cells) | IC50 (SNB-75 cells) | IC50 (SK-MES1 cells) | IC50 (OVCAR-4 cells) | .DELTA [1] | .RANGE [1] | IC50 [1] | IC50 (HT29 cells) | IC50 (TE-671 cells) | IC50 (MOLT-4 cells) | IC50 (U-251 cells) | IC50 (SNB-19 cells) | IC50 (A498 cells) | IC50 (SK-MEL5 cells) | IC50 (SN-12KI cells) | IC50 (LOVO cells) | IC50 (H460 cells) | IC50 (MCF-7/A cells) | IC50 (OVCAR-5 cells) | relative activities of the patellazoles [2] | also measured |
| --- | --- | --- | --- | --- | --- | --- | --- | --- | --- | --- | --- | --- | --- | --- | --- | --- | --- | --- | --- | --- | --- |
| CCC(C)C(=O)OC1(C)CCC(C)CC(O)C(C)C(=O)C(C)/C=C\CC(C)C(O)C(O)C(OC)/C(C)=C/C=C/C(C)C(C(C)(O)/C=C(/C)Cc2csc(C3(C)OC3C)n2)OC1=O (centres unmarked) [Patellazole A] | 0.0398 ng/mL (≈ 0.0448 nM) | 6.31 ng/mL (≈ 7.1 nM) | < 0.0316 ng/mL | 0.1 ng/mL (≈ 0.113 nM) | 0.5 | 2.3 | 0.0977 ng/mL (≈ 0.11 nM) | < 0.0316 ng/mL | < 0.0316 ng/mL | 0.0794 ng/mL (≈ 0.0894 nM) | < 0.0316 ng/mL | 0.0794 ng/mL (≈ 0.0894 nM) | 0.0631 ng/mL (≈ 0.071 nM) | 0.158 ng/mL (≈ 0.178 nM) | < 0.0316 ng/mL | 0.0794 ng/mL (≈ 0.0894 nM) | 0.0398 ng/mL (≈ 0.0448 nM) | 0.501 ng/mL (≈ 0.564 nM) | 0.0501 ng/mL (≈ 0.0564 nM) | A>B>C | IC50 (MCF-7 cells): 0.126 ng/mL (≈ 0.142 nM); IC50 (UO-31 cells): 0.126 ng/mL (≈ 0.142 nM); relative activity [1]: slightly more active than Patellazole B; IC50 (OVCAR-8 cells): 0.1 ng/mL (≈ 0.113 nM); IC50 (SW620 cells): 0.1 ng/mL (≈ 0.113 nM); IC50 (P388/AD cells): 0.126 ng/mL (≈ 0.142 nM); IC50 (HL-60 cells): 0.126 ng/mL (≈ 0.142 nM); IC50 (A704 cells): 0.1 ng/mL (≈ 0.113 nM); IC50 (H322 cells): 0.126 ng/mL (≈ 0.142 nM); IC50 (H520 cells): 0.794 ng/mL (≈ 0.894 nM); IC50 (EKV-X cells): 0.0794 ng/mL (≈ 0.0894 nM); IC50 (P388 cells): 0.1 ng/mL (≈ 0.113 nM) |
| COC1/C(C)=C/C=C/C(C)C(C(C)(O)/C=C(/C)Cc2csc(C3(C)OC3C)n2)OC(=O)C(C)(OC(=O)C(C)C(C)O)CCC(C)CC(O)C(C)C(=O)C(C)/C=C\CC(C)C(O)C1O (centres unmarked) [Patellazole B] | < 0.0316 ng/mL | < 0.0316 ng/mL | < 0.0316 ng/mL | < 0.0316 ng/mL | 0 | 0 | 0.0316 ng/mL (≈ 0.035 nM) | < 0.0316 ng/mL | < 0.0316 ng/mL | < 0.0316 ng/mL | < 0.0316 ng/mL | < 0.0316 ng/mL | < 0.0316 ng/mL | < 0.0316 ng/mL | < 0.0316 ng/mL | < 0.0316 ng/mL | < 0.0316 ng/mL | < 0.0316 ng/mL | < 0.0316 ng/mL | A>B>C | relative antiviral activity against HSV-2 (HSV-2; [3]): significantly more potent; HSV-2 (antiviral concentration) (HSV-2): 0.06 µg/mL; activity against herpes virus HSV-2 (HSV-2): showed activity; IC50 (MCF-7 cells): < 0.0316 ng/mL; Cytotoxicity Vero (VERO): 0.75 µg/mL; toxicity for the host cells (VERO): not toxic; IC50 (SNB-44 cells): < 0.0316 ng/mL; IC50 (UO-31 cells): < 0.0316 ng/mL; relative activity [1]: significantly more active than Patellazole C; IC50 (A549 cells): < 0.0316 ng/mL; relative antiviral activity against HSV-1 (HSV-1; [3]): significantly more potent; HSV-L (antiviral concentration) (HSV-1): 0.0005 µg/mL; activity against herpes virus HSV-1 (HSV-1): showed activity; IC50 (SW620 cells): < 0.0316 ng/mL; IC50 (P388/AD cells): < 0.0316 ng/mL; IC50 (LOX cells): < 0.0316 ng/mL; IC50 (A704 cells): < 0.0316 ng/mL; IC50 (H322 cells): < 0.0316 ng/mL; IC50 (EKV-X cells): < 0.0316 ng/mL; IC50 (P388 cells): < 0.0316 ng/mL |
| COC1/C(C)=C/C=C/C(C)C(C(C)(O)/C=C(/C)Cc2csc(C3(C)OC3C)n2)OC(=O)C(C)(OC(=O)C(C)C(C)O)CCC(C)CC(O)C(C)C(=O)C(CO)/C=C\CC(C)C(O)C1O (centres unmarked) [Patellazole C] | 5.01 ng/mL (≈ 5.45 nM) | > 31.6 ng/mL | 7.94 ng/mL (≈ 8.63 nM) | 7.94 ng/mL (≈ 8.63 nM) | 1.1 | 2.5 | 10.2 ng/mL (≈ 11.1 nM) | 1 ng/mL (≈ 1.09 nM) | 7.94 ng/mL (≈ 8.63 nM) | 7.94 ng/mL (≈ 8.63 nM) | 7.94 ng/mL (≈ 8.63 nM) | 10 ng/mL (≈ 10.9 nM) | 10 ng/mL (≈ 10.9 nM) | 12.6 ng/mL (≈ 13.7 nM) | 10 ng/mL (≈ 10.9 nM) | 6.31 ng/mL (≈ 6.86 nM) | 7.94 ng/mL (≈ 8.63 nM) | > 316 ng/mL | 2.51 ng/mL (≈ 2.73 nM) | generally less active | HSV-2 (antiviral concentration) (HSV-2): 0.80 µg/mL; activity against herpes virus HSV-2 (HSV-2): showed activity; Cytotoxicity Vero (VERO): 4.0 µg/mL; toxicity for the host cells (VERO): not toxic; IC50 (A322 cells): 7.94 ng/mL (≈ 8.63 nM); HSV-L (antiviral concentration) (HSV-1): 0.30 µg/mL; activity against herpes virus HSV-1 (HSV-1): showed activity; IC50 (OVCAR-8 cells): 10 ng/mL (≈ 10.9 nM); relative activities of the patellazoles ([2]; listed as C): A>B>C; IC50 (A704 cells): 79.4 ng/mL (≈ 86.3 nM); IC50 (EKV-X cells): 10 ng/mL (≈ 10.9 nM); IC50 (P388 cells): 12.6 ng/mL (≈ 13.7 nM) |
